Source: PMC10154249, “Unique progerin C-terminal peptide ameliorates Hutchinson–Gilford progeria syndrome phenotype by rescuing BUBR1” (Nature Aging, 2023)

How the values were obtained:
senescent IMR90 cells = assay: SA-β-gal staining of DNA damage-induced senescent IMR90 cells; format: cell-based, human; settings: for SA-β-gal positive cells: UPCP 6 μM 5 days
Description: Fibroblasts from patients with HGPS were obtained from The Progeria Research Foundation Cell and Tissue Bank (http://www.progeriaresearch.org). The following fibroblasts were used: HGADFN003, HGADFN167, HGMDFN090 and HGFDFN168. Human dermal fibroblasts (GM00038 and AG09602) were obtained from Coriell Cell Repository (https://catalog.coriell.org). These cells were characterized by DNA fingerprinting and isozyme detection and were tested by a MycoBlue Mycoplasma Detector (Vazyme Biotech) to exclude mycoplasma contamination before the experiments. […] HGADFN003, HGADFN167, HGMDFN090, HGFDFN168, GM00038 and AG09602 were cultured in DMEM medium with 15% (v/v) fetal bovine serum (VivaCell). All cell lines were grown at 37 °C with 5% CO2 and IMR90, CRL-1474, HGADFN003, HGADFN167, HGMDFN090, HGFDFN168, GM00038 and AG09602 were cultured with 5% O2. For bleomycin-induced senescence, IMR90 cells were incubated with the culture medium containing 20 μg ml^–1 Bleomycin (Selleck, catalog no. S1214) for 2 h and analyzed 10 days later, or as otherwise indicated. For doxorubicin-induced senescence, IMR90 cells were treated twice with 100 nM Doxorubicin (Selleck, catalog no. S1208) with a 2 day interval and analyzed 10 days later, or as otherwise indicated. For ionizing radiation (IR)-induced senescence, IMR90 cells were exposed to 10 Gy Gamma rays, and analyzed 10 days later, or as otherwise indicated, the control IMR90 cells were mock irradiated. For etoposide-induced senescence, IMR90 cells incubated with the culture medium containing 10 μM Etoposide (Sigma, catalog no. E1383) for 48 h and analyzed 10 days later, or as otherwise indicated.
SA-β-gal staining was performed as previously described. Cells were fixed in 0.5% glutaraldehyde for 15 min at room temperature, washed three times with PBS (pH 6.0) containing 1 mM MgCl2 and exposed overnight 37 °C to containing 1 mg ml^–1 5-bromo-4-chloro-3-indolyl-β-D-galactopyranoside (MCE, catalog no. HY-15934), 0.12 mM potassium ferrocyanide (Sigma, catalog no. P3289), 0.12 mM potassium ferricyanide (Sigma, catalog no. P8131) and 1 mM MgCl2 PBS buffer (pH 6.0). Cells were washed three times with H2O and observed under a microscope (OLYMPUS CKX53). SA-β-gal positive cells were quantified by investigators who were blinded to the identity of the analyzed cell.

HGADFN003 cells = assay: γH2AX-53BP1 foci in HGADFN003 cells; format: cell-based, human
Description: (§1) Immunofluorescence was performed as described previously. Cells were plated on cover slips in 12-well plates, left overnight before the treatment. Cells were fixed in 1% formaldehyde in culture medium for 10 min at 37 °C and permeabilized with 0.2% Triton X-100 in PBS for 10 min at room temperature. Cells were washed twice in PBS and blocked for 1 h with 5% BSA in PBS and then incubated with primary antibodies at 4 °C overnight, washed three times in PBS and incubated with secondary antibodies for 1 h at room temperature. Cell nuclei were counterstained with a 500 nM concentration of 4,6-diamidino-2-phenylindole (DAPI) (Sigma). Images were acquired by a fluorescence microscope (OLYMPUS FV-1000, Carl Zeiss LSM880 or Leica DMi8) and analyzed with software NIS-Elements AR v.5.0.1 (Nikon), FLUOVIEW v.4.2b (OLYMPUS), ZEN v.2.3 SP1 (Carl Zeiss) and Leica Application Suite X v.3.6.0.24 (Leica). Cells were quantified by investigators who were blinded to the identity of the analyzed cell.

[1] = system: BUBR1 kinetochore localization in H1299 cells; assay: Immunofluorescence, abnormal localization of BUBR1 in H1299 cells; format: cell-based; settings: for Relative percentage of the number of abnormal localization cells of BUBR1: Fig. 3h, H1299, progerin+UPCP, P=0.0202 vs progerin
Description: as §1

BUBR1 = target: T1, BUBR1 (Homo sapiens, UniProt O60566); assay: Microscale thermophoresis (MST) of UPCP and BUBR1; format: binding; settings: Fig. 3d
T1 construct: made in house
Description: Cells were harvested and lysed in buffer A mixed with protease inhibitor cocktail tablet (Roche) after 48 h. […] The beads were washed three times using 1× Tris saline buffer (50 mM Tris-HCl (pH 7.4) and 150 mM NaCl)) for 8 min each. The bound proteins BUBR1 or PTBP1 were eluted with 3×Flag peptide (ApexBio) for 2 h at 4 °C. Finally, BUBR1 or PTBP1 was concentrated and recovered by using the Centrifugal Filters (Amicon Ultra).
His-UPCP was eluted with Imidazole eluent for 2 h at 4 °C and concentrated and recovered by using centrifugal filters (Amicon Ultra). Flag-BUBR1 or PTBP1 was purified as described in Affinity purification of Flag-tagged protein. The purified protein was diluted with 0.05% Tween-20 in PBS in to an appropriate concentration (His-UPCP: 50 nM, Flag-BUBR1: 25 μM, Flag-PTBP1: 45 μM). Then, His-UPCP was labeled with RED-Tris-NAT according to the manufacturer’s instructions (NanoTemper, MO-L018). Flag-BUBR1 or Flag-PTBP1 was diluted by 16 concentration gradients in turn and mixed with labeled protein (His-UPCP). The capillaries (MST NT115 premium) were loaded and the samples measured on the instrument (NanoTemper Monolith NT.115). Data were analyzed by MO.AffinityAnalysis and curves were drawn using Origin 2019.

T1 sequence (O60566 whole entry): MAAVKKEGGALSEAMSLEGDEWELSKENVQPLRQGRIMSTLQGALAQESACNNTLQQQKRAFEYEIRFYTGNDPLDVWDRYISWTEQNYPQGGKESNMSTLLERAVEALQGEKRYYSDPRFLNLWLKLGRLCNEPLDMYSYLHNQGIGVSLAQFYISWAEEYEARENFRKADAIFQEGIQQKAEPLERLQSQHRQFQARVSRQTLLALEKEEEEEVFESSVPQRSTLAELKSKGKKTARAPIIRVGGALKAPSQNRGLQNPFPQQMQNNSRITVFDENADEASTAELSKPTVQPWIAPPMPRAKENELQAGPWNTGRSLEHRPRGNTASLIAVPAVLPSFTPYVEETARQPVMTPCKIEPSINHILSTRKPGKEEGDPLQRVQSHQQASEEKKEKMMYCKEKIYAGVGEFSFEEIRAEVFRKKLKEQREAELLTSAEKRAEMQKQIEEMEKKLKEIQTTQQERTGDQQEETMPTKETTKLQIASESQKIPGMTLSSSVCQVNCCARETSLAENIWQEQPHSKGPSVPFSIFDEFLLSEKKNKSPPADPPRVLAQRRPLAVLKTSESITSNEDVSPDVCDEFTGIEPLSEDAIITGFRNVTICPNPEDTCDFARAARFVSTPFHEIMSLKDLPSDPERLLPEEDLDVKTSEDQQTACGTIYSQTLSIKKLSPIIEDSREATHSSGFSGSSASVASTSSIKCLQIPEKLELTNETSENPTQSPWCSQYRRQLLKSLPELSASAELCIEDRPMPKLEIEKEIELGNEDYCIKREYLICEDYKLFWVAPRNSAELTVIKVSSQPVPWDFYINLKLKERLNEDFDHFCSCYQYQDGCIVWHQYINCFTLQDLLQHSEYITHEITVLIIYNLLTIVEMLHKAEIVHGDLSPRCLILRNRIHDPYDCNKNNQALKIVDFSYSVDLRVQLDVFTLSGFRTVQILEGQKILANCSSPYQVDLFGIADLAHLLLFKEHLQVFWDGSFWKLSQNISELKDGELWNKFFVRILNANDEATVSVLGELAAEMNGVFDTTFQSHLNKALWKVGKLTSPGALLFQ

## H-YGRKKRRQRRRYNLRSRTVLCGTCGQPADKASASGSGAQSPQNCSIM-OH (cysteines drawn unpaired) [UPCP, unique progerin C-terminal peptide]
Senescent IMR90 cells; BLM (bleomycin 20 μg/mL 2 h), replicate 1
  SA-β-gal positive cells: 71.6418%
Senescent IMR90 cells; BLM (bleomycin 20 μg/mL 2 h), replicate 2
  SA-β-gal positive cells: 81.25%
Senescent IMR90 cells; BLM (bleomycin 20 μg/mL 2 h), replicate 3
  SA-β-gal positive cells: 74.0741%
Senescent IMR90 cells; Dox (doxorubicin 100 nM twice), replicate 1
  SA-β-gal positive cells: 76.4706%
Senescent IMR90 cells; Dox (doxorubicin 100 nM twice), replicate 2
  SA-β-gal positive cells: 84.6154%
Senescent IMR90 cells; Dox (doxorubicin 100 nM twice), replicate 3
  SA-β-gal positive cells: 66.1539%
Senescent IMR90 cells; Eto (etoposide 10 μM 48 h), replicate 1
  SA-β-gal positive cells: 80.4348%
Senescent IMR90 cells; Eto (etoposide 10 μM 48 h), replicate 2
  SA-β-gal positive cells: 71.7949%
Senescent IMR90 cells; Eto (etoposide 10 μM 48 h), replicate 3
  SA-β-gal positive cells: 70.9091%
Senescent IMR90 cells; IMR90, 10 days after bleomycin, doxorubicin, ionizing radiation or etoposide
  rescue of phenotype of DNA damage-induced senescent cells: failed to rescue the progeria phenotype of these cells
Senescent IMR90 cells; IR (10 Gy), replicate 1
  SA-β-gal positive cells: 77.4193%
Senescent IMR90 cells; IR (10 Gy), replicate 2
  SA-β-gal positive cells: 75.5814%
Senescent IMR90 cells; IR (10 Gy), replicate 3
  SA-β-gal positive cells: 70.4545%
HGADFN003 cells; HGADFN003, relative to Mock = 100, replicate 1
  γH2AX and 53BP1 positive cells (/Mock): 45%
HGADFN003 cells; HGADFN003, relative to Mock = 100, replicate 2
  γH2AX and 53BP1 positive cells (/Mock): 55%
HGADFN003 cells; HGADFN003, relative to Mock = 100, replicate 3
  γH2AX and 53BP1 positive cells (/Mock): 50%
HGADFN003 cells; HGPS fibroblasts
  γH2AX-53BP1 foci: lower level of γH2AX-53BP1 foci
[1]; replicate 1
  Relative percentage of the number of abnormal localization cells of BUBR1: 25%
[1]; replicate 2
  Relative percentage of the number of abnormal localization cells of BUBR1: 18%
[1]; replicate 3
  Relative percentage of the number of abnormal localization cells of BUBR1: 27%
[1]; H1299 cells, immunofluorescence
  BUBR1 localization to the kinetochore: correctly localized BUBR1 to the kinetochore
BUBR1; Dose 3.125e-6, Err-Value 0.164542
  Dose Response Curve, Response: 928.56
BUBR1; Dose 6.25e-6, Err-Value 0.285623
  Dose Response Curve, Response: 930.678
BUBR1; Dose 1.25e-5, Err-Value 0.150599
  Dose Response Curve, Response: 932.492
BUBR1; Dose 1.22E-08, Err-Value 0.206069
  Dose Response Curve, Response: 919.933
BUBR1; Dose 1.53E-09, Err-Value 0.561265
  Dose Response Curve, Response: 919.392
BUBR1; Dose 1.56E-06, Err-Value 0.465775
  Dose Response Curve, Response: 925.424
BUBR1; Dose 1.95E-07, Err-Value 0.135144
  Dose Response Curve, Response: 920.487
BUBR1; Dose 2.44E-08, Err-Value 0.0972446
  Dose Response Curve, Response: 919.498
BUBR1; Dose 3.05E-09, Err-Value 0.226695
  Dose Response Curve, Response: 919.513
BUBR1; Dose 3.81E-10, Err-Value 0.379307
  Dose Response Curve, Response: 919.141
BUBR1; Dose 3.91E-07, Err-Value 0.144905
  Dose Response Curve, Response: 921.751
BUBR1; Dose 4.88E-08, Err-Value 0.856541
  Dose Response Curve, Response: 920.216
BUBR1; Dose 6.10E-09, Err-Value 0.130907
  Dose Response Curve, Response: 919.306
BUBR1; Dose 7.63E-10, Err-Value 0.475828
  Dose Response Curve, Response: 919.4
BUBR1; Dose 7.81E-07, Err-Value 0.529145
  Dose Response Curve, Response: 922.85
BUBR1; Dose 9.77E-08, Err-Value 0.363098
  Dose Response Curve, Response: 919.824
